One experiment concerns the target HDAC6 (Homo sapiens (Human), UniProt Q9UBN7). Kind of experiment: HDAC6 enzymatic activity assay. It is filed as biochemical.
Details: not given
The procedure: The inhibitory activity of the compounds of the present application against HDAC6 was evaluated by an enzymatic activity assay. HDAC6 (Abcam), test compounds, and a 20 µM substrate solution (Ac-GAK(Ac)-AMC) were each added to a 384-well plate, and the plate was incubated at 37° C. for 30 min. […] and […] were added, and the plate was incubated at room temperature for 15 min. […] IC50 was obtained by fitting using GraphPadPrism 7.0 software.
Chain of HDAC6 (Q9UBN7 whole entry): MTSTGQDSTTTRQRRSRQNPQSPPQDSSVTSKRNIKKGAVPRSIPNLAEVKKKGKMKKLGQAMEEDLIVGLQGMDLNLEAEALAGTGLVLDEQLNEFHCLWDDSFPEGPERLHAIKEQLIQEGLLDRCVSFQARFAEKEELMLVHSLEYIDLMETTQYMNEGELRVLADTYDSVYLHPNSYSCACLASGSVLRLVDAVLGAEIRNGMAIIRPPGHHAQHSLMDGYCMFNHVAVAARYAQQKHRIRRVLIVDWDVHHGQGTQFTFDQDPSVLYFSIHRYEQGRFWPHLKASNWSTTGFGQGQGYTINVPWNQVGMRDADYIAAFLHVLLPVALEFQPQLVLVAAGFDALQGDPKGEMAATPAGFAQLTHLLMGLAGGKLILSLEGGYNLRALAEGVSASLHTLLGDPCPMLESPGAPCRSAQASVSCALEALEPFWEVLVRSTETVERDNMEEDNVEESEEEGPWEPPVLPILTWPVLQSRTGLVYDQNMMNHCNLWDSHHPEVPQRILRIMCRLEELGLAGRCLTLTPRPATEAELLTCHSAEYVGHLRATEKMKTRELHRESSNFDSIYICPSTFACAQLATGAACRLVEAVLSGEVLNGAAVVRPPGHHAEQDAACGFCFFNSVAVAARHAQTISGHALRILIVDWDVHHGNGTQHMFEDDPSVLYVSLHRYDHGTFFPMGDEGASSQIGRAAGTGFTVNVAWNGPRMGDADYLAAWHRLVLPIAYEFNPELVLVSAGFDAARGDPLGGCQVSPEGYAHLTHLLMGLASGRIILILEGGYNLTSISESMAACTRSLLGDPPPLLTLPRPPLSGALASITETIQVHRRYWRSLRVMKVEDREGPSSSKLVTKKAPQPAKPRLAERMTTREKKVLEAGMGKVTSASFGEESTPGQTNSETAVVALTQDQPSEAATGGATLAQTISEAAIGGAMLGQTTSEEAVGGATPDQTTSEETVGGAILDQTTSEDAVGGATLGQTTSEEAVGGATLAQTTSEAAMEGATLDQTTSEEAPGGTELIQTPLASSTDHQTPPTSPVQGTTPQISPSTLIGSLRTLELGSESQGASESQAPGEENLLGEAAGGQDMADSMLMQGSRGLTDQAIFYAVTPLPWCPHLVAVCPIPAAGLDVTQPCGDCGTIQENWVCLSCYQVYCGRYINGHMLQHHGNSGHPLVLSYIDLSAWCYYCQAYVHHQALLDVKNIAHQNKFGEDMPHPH
The term IC50 denotes the midpoint of a concentration-inhibition curve. A higher IC50 goes with weaker potency. `O=C(N[C@@H]1CCCC[C@H]1N1Cc2ccc(-c3nnc(C(F)F)o3)cc2S1(=O)=O)C1CC1` [Compound 114]: the IC50 was 97.5 nM.
For `O=S1(=O)c2cc(-c3nnc(C(F)F)o3)ccc2CN1[C@@H](c1ccc(F)cn1)[C@H](O)c1ccc(F)cn1` (single isomer, unassigned) [Compound 88j-A-B], the IC50 was found to be 160 nM.
Same read-out and setting: to `O=S1(=O)c2cc(-c3nnc(C(F)F)o3)ccc2CN1[C@@H](c1ccccn1)[C@H](O)c1ccc(F)cn1` (single isomer, unassigned) [Compound 84j-A] belongs 42.7 nM.

Another experiment concerns acetylation level of α-tubulin in HCT116 cells. The experiment is described as follows: Assay on acetylation level of α-tubulin, HCT116 cells. It is filed as cell-based. The conditions noted are these: Homo sapiens, HCT-116, 6 h. How it is done:
A375/HCT116/HCC827 cells at a logarithmic growth phase were taken, digested with a […] (trypsin), centrifuged, counted, and plated in a 96-well plate at an appropriate cell density (30,000 cells/well) at 100 µL/well, and an appropriate amount of PBS was added around the plate for water sealing. The next day, the cells were treated with the compounds at different concentrations (starting at 100 μM, 5-fold dilution, 9 concentration gradients). After 6 h, the medium was pipetted out and the cells were washed twice with 100 μL of PBST. The cells were then immobilized in 4% paraformaldehyde, and the plate was incubated at room temperature for 20 min. The stationary liquid was discarded and the cells were washed with PBST. 150 μL of special blocking buffer (containing 1% Triton-100) was added to each well for blocking at room temperature for 2 h, and the plate was washed with PBS to remove excess blocking buffer. α-tubulin (DM1A) mouse mAb and acetyl-α-tubulin (Lys40) (D20G3) XP rabbit mAb were diluted at a 1:2000 ratio with a blocking buffer containing 0.033% Triton-100. The dilutions were added to the 96-well plate and the plate was incubated overnight at 4° C. Meanwhile, a blank control group was set. The next day, the plate was washed twice with PBST. Secondary anti-mouse IgG (H+L) (DyLight™ 680 conjugate) and anti-rabbit IgG (H+L) (DyLight™ 800 conjugate) were diluted at a 1:2000 ratio with a blocking buffer containing 0.033% Triton-100. The dilutions were added to a 96-well plate and the plate was incubated at room temperature for 2 h. The plate was washed twice with PBST and once with PBS. Fluorescence signals at 700 nm and 800 nm were detected with a Li-COR Odyssey two-color near-infrared laser imager.
The term EC50 denotes the midpoint of the concentration-response curve. High values mean weaker potency, low ones greater potency. For `O=C(N[C@@H]1CCOC[C@H]1N1Cc2ccc(-c3nnc(C(F)F)o3)cc2S1(=O)=O)C1(C(F)(F)F)CC1` [Compound 65], the midpoint of the response, the EC50, lay at 467 nM.
In turn, `O=C(N[C@@H]1CCOC[C@H]1N1Cc2ccc(-c3nnc(C(F)F)o3)cc2S1(=O)=O)C(F)(F)C(F)(F)F` [Compound 66] registered an EC50 of 322 nM.
In turn, `O=C(N[C@@H]1CCCC[C@H]1N1Cc2ccc(-c3nnc(C(F)F)o3)cc2S1(=O)=O)C1CC1` [Compound 114] came in with an EC50 of 351 nM.
`O=S1(=O)c2cc(-c3nnc(C(F)F)o3)ccc2CN1[C@@H](c1ccc(F)cn1)[C@H](O)c1ccc(F)cn1` (single isomer, unassigned) [Compound 88j-A-B] showed an EC50 of 618 nM.
As to `O=S1(=O)c2cc(-c3nnc(C(F)F)o3)ccc2CN1[C@@H](c1ccccn1)[C@H](O)c1ccc(F)cn1` (single isomer, unassigned) [Compound 84j-A], the EC50 is 544 nM.

The values above are taken from patent US20250257060A1, “OXADIAZOLE COMPOUND, PHARMACEUTICAL COMPOSITION COMPRISING SAME, AND USE THEREOF” (SUZHOU GENHOUSE BIO CO., LTD., priority 2022, published 2025).
